Patent US10766902B2, “Wee-1 inhibiting pyrazolopyrimidinone compounds” (ALMAC DISCOVERY LIMITED, priority 2016, dated 2020)

Experiments:
Format in all cases: biochemical
Conditions in all cases: tested at 300-350 nM
[1] = target: ABL1 (Homo sapiens (Human), UniProt P00519); experiment: SelectScreen Kinase Profiling: ABL1
Excerpt: (§1) Table 4 below highlights the selectivity of a representative compound of the invention, Example 5, against a panel of 50 kinases (assessed using the Invitrogen SelectScreen® Kinase Profiling Service).

[2] = target: ACVR1B (ALK4) (Homo sapiens (Human), UniProt P36896); experiment: SelectScreen Kinase Profiling: ACVR1B (ALK4)
Excerpt: as §1

[3] = target: AKT1 (PKB alpha) (Homo sapiens (Human), UniProt P31749); experiment: SelectScreen Kinase Profiling: AKT1 (PKB alpha)
Excerpt: as §1

[4] = target: AMPK A1/B1/G1 (Homo sapiens (Human), UniProt Q13131); experiment: SelectScreen Kinase Profiling: AMPK A1/B1/G1
Excerpt: as §1

[5] = target: AURKA (Aurora A) (Homo sapiens (Human), UniProt O14965); experiment: SelectScreen Kinase Profiling: AURKA (Aurora A)
Excerpt: as §1

[6] = target: BTK (Homo sapiens (Human), UniProt Q06187); experiment: SelectScreen Kinase Profiling: BTK
Excerpt: as §1

[7] = target: CDK1/cyclin B (Homo sapiens (Human), UniProt P06493); experiment: SelectScreen Kinase Profiling: CDK1/cyclin B
CDK1/cyclin B, sequence (P06493 whole entry): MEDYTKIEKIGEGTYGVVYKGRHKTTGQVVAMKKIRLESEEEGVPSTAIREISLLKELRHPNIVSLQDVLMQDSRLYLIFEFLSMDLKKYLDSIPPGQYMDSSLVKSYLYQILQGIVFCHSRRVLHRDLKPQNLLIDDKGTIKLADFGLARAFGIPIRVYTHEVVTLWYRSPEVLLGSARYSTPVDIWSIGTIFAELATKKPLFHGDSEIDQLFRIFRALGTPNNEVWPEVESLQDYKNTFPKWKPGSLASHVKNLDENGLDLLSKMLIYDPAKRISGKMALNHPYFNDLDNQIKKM
CDK1/cyclin B, sequence (P14635 whole entry partner): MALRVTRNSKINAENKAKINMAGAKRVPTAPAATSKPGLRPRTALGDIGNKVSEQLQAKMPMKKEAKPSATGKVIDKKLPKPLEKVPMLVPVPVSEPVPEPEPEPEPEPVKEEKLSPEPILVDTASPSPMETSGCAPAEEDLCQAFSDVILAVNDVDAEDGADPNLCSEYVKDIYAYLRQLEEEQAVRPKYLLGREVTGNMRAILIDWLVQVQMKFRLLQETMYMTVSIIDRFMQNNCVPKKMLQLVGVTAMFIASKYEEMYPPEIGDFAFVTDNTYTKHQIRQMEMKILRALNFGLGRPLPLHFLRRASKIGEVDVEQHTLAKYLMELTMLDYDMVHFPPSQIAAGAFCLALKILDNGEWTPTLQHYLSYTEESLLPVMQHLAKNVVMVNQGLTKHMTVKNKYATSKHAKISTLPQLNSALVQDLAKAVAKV
Excerpt: as §1

[8] = target: CHEK1 (CHK1) (Homo sapiens (Human), UniProt O14757); experiment: SelectScreen Kinase Profiling: CHEK1 (CHK1)
Excerpt: as §1

[9] = target: CSNK1G2 (CK1 gamma 2) (Homo sapiens (Human), UniProt P78368); experiment: SelectScreen Kinase Profiling: CSNK1G2 (CK1 gamma 2)
Excerpt: as §1

[10] = target: CSNK2A1 (CK2 alpha 1) (Homo sapiens (Human), UniProt P68400); experiment: SelectScreen Kinase Profiling: CSNK2A1 (CK2 alpha 1)
CSNK2A1 (CK2 alpha 1), sequence (P68400 whole entry): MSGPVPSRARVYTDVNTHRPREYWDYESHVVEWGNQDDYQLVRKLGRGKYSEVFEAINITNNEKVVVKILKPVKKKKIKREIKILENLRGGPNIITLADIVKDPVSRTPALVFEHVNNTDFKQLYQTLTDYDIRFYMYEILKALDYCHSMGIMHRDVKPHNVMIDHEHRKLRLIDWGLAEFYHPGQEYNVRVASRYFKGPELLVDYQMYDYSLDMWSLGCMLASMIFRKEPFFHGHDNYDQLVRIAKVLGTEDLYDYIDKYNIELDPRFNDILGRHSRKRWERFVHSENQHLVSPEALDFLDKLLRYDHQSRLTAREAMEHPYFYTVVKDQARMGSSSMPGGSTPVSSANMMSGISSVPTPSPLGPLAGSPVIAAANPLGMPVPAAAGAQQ
Excerpt: as §1

[11] = target: DYRK3 (Homo sapiens (Human), UniProt O43781); experiment: SelectScreen Kinase Profiling: DYRK3
Excerpt: as §1

[12] = target: EGFR (ErbB1) (Homo sapiens (Human), UniProt P00533); experiment: SelectScreen Kinase Profiling: EGFR (ErbB1)
Excerpt: as §1

[13] = target: EPHA2 (Homo sapiens (Human), UniProt P29317); experiment: SelectScreen Kinase Profiling: EPHA2
Excerpt: as §1

[14] = target: ERBB2 (HER2) (Homo sapiens (Human), UniProt P04626); experiment: SelectScreen Kinase Profiling: ERBB2 (HER2)
Excerpt: as §1

[15] = target: FGFR1 (Homo sapiens (Human), UniProt P11362); experiment: SelectScreen Kinase Profiling: FGFR1
Excerpt: as §1

[16] = target: FLT3 (Homo sapiens (Human), UniProt P36888); experiment: SelectScreen Kinase Profiling: FLT3
Excerpt: as §1

[17] = target: FRAP1 (mTOR) (Homo sapiens (Human), UniProt P42345); experiment: SelectScreen Kinase Profiling: FRAP1 (mTOR)
Excerpt: as §1

[18] = target: GSK3B (GSK3 beta) (Homo sapiens (Human), UniProt P49841); experiment: SelectScreen Kinase Profiling: GSK3B (GSK3 beta)
Excerpt: as §1

[19] = target: IGF1R (Homo sapiens (Human), UniProt P08069); experiment: SelectScreen Kinase Profiling: IGF1R
IGF1R, sequence (P08069 31-1367): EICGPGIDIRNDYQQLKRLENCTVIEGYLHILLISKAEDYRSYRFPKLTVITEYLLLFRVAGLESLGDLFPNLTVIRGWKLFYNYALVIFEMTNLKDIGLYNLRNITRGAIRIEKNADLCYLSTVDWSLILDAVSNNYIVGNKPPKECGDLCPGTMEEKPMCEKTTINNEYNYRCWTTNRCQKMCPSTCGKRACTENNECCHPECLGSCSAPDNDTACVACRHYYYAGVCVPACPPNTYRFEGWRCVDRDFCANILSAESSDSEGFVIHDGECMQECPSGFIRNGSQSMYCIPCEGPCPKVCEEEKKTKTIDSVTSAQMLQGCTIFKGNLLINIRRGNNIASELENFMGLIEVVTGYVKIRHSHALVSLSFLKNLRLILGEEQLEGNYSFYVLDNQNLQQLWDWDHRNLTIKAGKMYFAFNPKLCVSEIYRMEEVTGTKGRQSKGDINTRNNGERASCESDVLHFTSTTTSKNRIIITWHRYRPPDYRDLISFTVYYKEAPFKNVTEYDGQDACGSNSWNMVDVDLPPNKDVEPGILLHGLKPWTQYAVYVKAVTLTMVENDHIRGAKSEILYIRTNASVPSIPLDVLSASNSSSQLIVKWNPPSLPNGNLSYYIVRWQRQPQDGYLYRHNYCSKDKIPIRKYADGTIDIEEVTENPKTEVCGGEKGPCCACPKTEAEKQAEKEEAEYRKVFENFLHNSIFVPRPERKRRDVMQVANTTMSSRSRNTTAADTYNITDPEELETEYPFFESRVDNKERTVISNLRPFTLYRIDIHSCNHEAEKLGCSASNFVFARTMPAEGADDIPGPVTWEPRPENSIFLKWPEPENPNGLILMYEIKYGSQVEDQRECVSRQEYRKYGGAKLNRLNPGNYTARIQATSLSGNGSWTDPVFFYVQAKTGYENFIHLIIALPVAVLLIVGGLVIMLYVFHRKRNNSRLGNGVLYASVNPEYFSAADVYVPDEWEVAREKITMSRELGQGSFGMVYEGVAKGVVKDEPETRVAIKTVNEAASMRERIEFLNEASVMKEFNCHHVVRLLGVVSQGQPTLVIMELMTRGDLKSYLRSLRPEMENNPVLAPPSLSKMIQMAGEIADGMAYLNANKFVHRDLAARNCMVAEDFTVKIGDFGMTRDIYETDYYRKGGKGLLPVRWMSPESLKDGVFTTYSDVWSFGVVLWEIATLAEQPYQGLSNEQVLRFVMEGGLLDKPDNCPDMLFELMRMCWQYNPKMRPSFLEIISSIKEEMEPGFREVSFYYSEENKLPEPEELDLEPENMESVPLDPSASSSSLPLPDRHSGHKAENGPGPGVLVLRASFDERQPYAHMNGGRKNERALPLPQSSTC
Excerpt: as §1

[20] = target: IKBKB (IKK beta) (Homo sapiens (Human), UniProt O14920); experiment: SelectScreen Kinase Profiling: IKBKB (IKK beta)
Excerpt: as §1

[21] = target: INSR (Homo sapiens (Human), UniProt P06213); experiment: SelectScreen Kinase Profiling: INSR
INSR, sequence (P06213 28-1382): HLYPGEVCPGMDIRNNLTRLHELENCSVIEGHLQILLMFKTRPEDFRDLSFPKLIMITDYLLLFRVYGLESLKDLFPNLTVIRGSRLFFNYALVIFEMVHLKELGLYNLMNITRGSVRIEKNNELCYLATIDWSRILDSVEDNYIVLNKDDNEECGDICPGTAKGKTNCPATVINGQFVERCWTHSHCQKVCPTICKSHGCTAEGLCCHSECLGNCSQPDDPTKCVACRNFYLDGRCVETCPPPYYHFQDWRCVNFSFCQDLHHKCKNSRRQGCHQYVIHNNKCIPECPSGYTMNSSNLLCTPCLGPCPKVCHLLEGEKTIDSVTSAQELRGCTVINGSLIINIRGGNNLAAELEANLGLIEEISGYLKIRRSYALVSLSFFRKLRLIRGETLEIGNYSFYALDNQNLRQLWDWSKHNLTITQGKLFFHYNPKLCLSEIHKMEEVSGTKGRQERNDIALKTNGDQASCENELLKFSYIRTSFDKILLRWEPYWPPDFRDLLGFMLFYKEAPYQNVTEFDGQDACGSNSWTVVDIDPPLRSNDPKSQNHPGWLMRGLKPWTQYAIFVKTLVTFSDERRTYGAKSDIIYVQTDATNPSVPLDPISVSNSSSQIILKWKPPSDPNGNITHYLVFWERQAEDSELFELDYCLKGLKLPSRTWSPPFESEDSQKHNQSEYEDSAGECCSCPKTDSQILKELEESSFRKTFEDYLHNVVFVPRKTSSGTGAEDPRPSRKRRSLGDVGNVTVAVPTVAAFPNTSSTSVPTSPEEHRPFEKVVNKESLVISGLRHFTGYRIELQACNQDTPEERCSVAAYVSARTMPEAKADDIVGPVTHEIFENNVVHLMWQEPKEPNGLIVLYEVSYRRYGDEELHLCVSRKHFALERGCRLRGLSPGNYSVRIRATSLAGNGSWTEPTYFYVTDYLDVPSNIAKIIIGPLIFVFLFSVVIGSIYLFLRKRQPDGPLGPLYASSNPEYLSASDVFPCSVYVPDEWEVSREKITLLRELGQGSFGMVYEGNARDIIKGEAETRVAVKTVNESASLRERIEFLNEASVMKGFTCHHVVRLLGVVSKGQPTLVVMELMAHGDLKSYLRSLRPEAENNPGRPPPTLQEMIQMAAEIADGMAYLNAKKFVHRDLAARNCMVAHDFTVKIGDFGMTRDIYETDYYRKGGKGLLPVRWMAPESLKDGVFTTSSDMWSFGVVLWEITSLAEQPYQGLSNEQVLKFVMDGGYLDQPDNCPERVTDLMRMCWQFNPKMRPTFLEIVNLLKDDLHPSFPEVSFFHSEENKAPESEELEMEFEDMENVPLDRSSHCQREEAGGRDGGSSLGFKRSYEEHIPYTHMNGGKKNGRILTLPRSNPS
Excerpt: as §1

[22] = target: IRAK4 (Homo sapiens (Human), UniProt Q9NWZ3); experiment: SelectScreen Kinase Profiling: IRAK4
Excerpt: as §1

[23] = target: JAK3 (Homo sapiens (Human), UniProt P52333); experiment: SelectScreen Kinase Profiling: JAK3
Excerpt: as §1

[24] = target: KDR (VEGFR2) (Homo sapiens (Human), UniProt P35968); experiment: SelectScreen Kinase Profiling: KDR (VEGFR2)
Excerpt: as §1

[25] = target: KIT (Homo sapiens (Human), UniProt P10721); experiment: SelectScreen Kinase Profiling: KIT
Excerpt: as §1

[26] = target: MAP2K1 (MEK1) (Homo sapiens (Human), UniProt Q02750); experiment: SelectScreen Kinase Profiling: MAP2K1 (MEK1)
Excerpt: as §1

[27] = target: MAP4K4 (HGK) (Homo sapiens (Human), UniProt O95819); experiment: SelectScreen Kinase Profiling: MAP4K4 (HGK)
Excerpt: as §1

[28] = target: MAPK1 (ERK2) (Homo sapiens (Human), UniProt P28482); experiment: SelectScreen Kinase Profiling: MAPK1 (ERK2)
Excerpt: as §1

[29] = target: MAPK14 (p38 alpha) (Homo sapiens (Human), UniProt Q16539); experiment: SelectScreen Kinase Profiling: MAPK14 (p38 alpha)
MAPK14 (p38 alpha), sequence (Q16539 whole entry): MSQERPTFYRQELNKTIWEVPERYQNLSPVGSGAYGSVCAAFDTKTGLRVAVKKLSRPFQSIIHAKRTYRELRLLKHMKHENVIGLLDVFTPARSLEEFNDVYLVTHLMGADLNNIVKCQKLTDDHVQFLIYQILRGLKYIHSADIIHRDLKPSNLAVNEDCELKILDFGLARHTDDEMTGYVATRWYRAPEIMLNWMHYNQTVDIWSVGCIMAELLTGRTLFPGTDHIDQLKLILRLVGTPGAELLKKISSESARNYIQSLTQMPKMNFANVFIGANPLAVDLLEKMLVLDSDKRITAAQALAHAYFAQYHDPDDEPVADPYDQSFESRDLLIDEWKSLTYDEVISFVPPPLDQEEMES
Excerpt: as §1

[30] = target: MAPK8 (JNK1) (Homo sapiens (Human), UniProt P45983); experiment: SelectScreen Kinase Profiling: MAPK8 (JNK1)
Excerpt: as §1

[31] = target: MAPKAPK2 (Homo sapiens (Human), UniProt P49137); experiment: SelectScreen Kinase Profiling: MAPKAPK2
Excerpt: as §1

[32] = target: MARK2 (Homo sapiens (Human), UniProt Q7KZI7); experiment: SelectScreen Kinase Profiling: MARK2
MARK2, sequence (Q7KZI7 whole entry): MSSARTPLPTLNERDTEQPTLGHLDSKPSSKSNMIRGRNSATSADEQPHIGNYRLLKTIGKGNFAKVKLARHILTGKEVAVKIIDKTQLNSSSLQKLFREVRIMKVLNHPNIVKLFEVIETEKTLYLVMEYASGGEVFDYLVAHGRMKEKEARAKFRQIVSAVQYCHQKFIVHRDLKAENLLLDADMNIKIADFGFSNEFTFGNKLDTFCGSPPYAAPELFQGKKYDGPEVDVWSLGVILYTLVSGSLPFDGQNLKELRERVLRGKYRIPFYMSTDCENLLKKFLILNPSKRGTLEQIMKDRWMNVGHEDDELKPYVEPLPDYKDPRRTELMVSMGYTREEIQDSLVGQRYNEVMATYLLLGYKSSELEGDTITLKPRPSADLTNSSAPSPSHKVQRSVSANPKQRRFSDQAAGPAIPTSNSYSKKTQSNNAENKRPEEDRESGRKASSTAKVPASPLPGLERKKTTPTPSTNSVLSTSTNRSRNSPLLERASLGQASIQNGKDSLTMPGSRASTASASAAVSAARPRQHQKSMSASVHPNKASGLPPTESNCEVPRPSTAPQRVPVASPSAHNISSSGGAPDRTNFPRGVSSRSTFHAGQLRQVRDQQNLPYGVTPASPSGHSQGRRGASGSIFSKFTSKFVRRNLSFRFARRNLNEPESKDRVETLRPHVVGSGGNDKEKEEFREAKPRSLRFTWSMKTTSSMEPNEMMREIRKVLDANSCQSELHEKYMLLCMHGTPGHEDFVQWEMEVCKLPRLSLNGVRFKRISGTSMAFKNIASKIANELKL
Excerpt: as §1

[33] = target: MET (cMet) (Homo sapiens (Human), UniProt P08581); experiment: SelectScreen Kinase Profiling: MET (cMet)
Excerpt: as §1

[34] = target: NEK1 (Homo sapiens (Human), UniProt Q96PY6); experiment: SelectScreen Kinase Profiling: NEK1
Excerpt: as §1

[35] = target: NTRK1 (TRKA) (Homo sapiens (Human), UniProt P04629); experiment: SelectScreen Kinase Profiling: NTRK1 (TRKA)
Excerpt: as §1

[36] = target: PAK4 (Homo sapiens (Human), UniProt O96013); experiment: SelectScreen Kinase Profiling: PAK4
Excerpt: as §1

[37] = target: PDGFRB (PDGFR beta) (Homo sapiens (Human), UniProt P09619); experiment: SelectScreen Kinase Profiling: PDGFRB (PDGFR beta)
Excerpt: as §1

[38] = target: PHKG2 (Homo sapiens (Human), UniProt P15735); experiment: SelectScreen Kinase Profiling: PHKG2
Excerpt: as §1

[39] = target: PIM1 (Homo sapiens (Human), UniProt P11309); experiment: SelectScreen Kinase Profiling: PIM1
Excerpt: as §1

[40] = target: PLK1 (Homo sapiens (Human), UniProt P53350); experiment: SelectScreen Kinase Profiling: PLK1
Excerpt: as §1

[41] = target: PRKACA (PKA) (Homo sapiens (Human), UniProt P17612); experiment: SelectScreen Kinase Profiling: PRKACA (PKA)
Excerpt: as §1

[42] = target: PRKCB1 (PKC beta I) (Homo sapiens (Human), UniProt P05771); experiment: SelectScreen Kinase Profiling: PRKCB1 (PKC beta I)
Excerpt: as §1

[43] = target: ROCK1 (Homo sapiens (Human), UniProt Q13464); experiment: SelectScreen Kinase Profiling: ROCK1
Excerpt: as §1

[44] = target: RPS6KA3 (RSK2) (Homo sapiens (Human), UniProt P51812); experiment: SelectScreen Kinase Profiling: RPS6KA3 (RSK2)
Excerpt: as §1

[45] = target: RPS6KB1 (p70S6K) (Homo sapiens (Human), UniProt P23443); experiment: SelectScreen Kinase Profiling: RPS6KB1 (p70S6K)
Excerpt: as §1

[46] = target: SRC (Homo sapiens (Human), UniProt P12931); experiment: SelectScreen Kinase Profiling: SRC
Excerpt: as §1

[47] = target: SYK (Homo sapiens (Human), UniProt P43405); experiment: SelectScreen Kinase Profiling: SYK
Excerpt: as §1

[48] = target: TEK (Tie2) (Homo sapiens (Human), UniProt Q02763); experiment: SelectScreen Kinase Profiling: TEK (Tie2)
Excerpt: as §1

C=CCn1c(=O)c2cnc(Nc3ccc(N4CCN(C)CC4)cc3)nc2n1-c1cccc(C(C)(C)O)n1 [reference compound]
inhibition of ABL1 [1]: + (inhibition over 50% (tested at 300-350 nM)) | inhibition of ACVR1B (ALK4) [2]: − (inhibition under 50% (tested at 300-350 nM)) | inhibition of AKT1 (PKB alpha) [3]: − (inhibition under 50% (tested at 300-350 nM)) | inhibition of AMPK A1/B1/G1 [4]: − (inhibition under 50% (tested at 300-350 nM)) | inhibition of AURKA (Aurora A) [5]: − (inhibition under 50% (tested at 300-350 nM)) | inhibition of BTK [6]: − (inhibition under 50% (tested at 300-350 nM)) | inhibition of CDK1/cyclin B [7]: − (inhibition under 50% (tested at 300-350 nM)) | inhibition of CHEK1 (CHK1) [8]: − (inhibition under 50% (tested at 300-350 nM)) | inhibition of CSNK1G2 (CK1 gamma 2) [9]: − (inhibition under 50% (tested at 300-350 nM)) | inhibition of CSNK2A1 (CK2 alpha 1) [10]: − (inhibition under 50% (tested at 300-350 nM)) | inhibition of DYRK3 [11]: − (inhibition under 50% (tested at 300-350 nM)) | inhibition of EGFR (ErbB1) [12]: + (inhibition over 50% (tested at 300-350 nM)) | inhibition of EPHA2 [13]: − (inhibition under 50% (tested at 300-350 nM)) | inhibition of ERBB2 (HER2) [14]: − (inhibition under 50% (tested at 300-350 nM)) | inhibition of FGFR1 [15]: − (inhibition under 50% (tested at 300-350 nM)) | inhibition of FLT3 [16]: − (inhibition under 50% (tested at 300-350 nM)) | inhibition of FRAP1 (mTOR) [17]: − (inhibition under 50% (tested at 300-350 nM)) | inhibition of GSK3B (GSK3 beta) [18]: − (inhibition under 50% (tested at 300-350 nM)) | inhibition of IGF1R [19]: − (inhibition under 50% (tested at 300-350 nM)) | inhibition of IKBKB (IKK beta) [20]: − (inhibition under 50% (tested at 300-350 nM)) | inhibition of INSR [21]: − (inhibition under 50% (tested at 300-350 nM)) | inhibition of IRAK4 [22]: − (inhibition under 50% (tested at 300-350 nM)) | inhibition of JAK3 [23]: − (inhibition under 50% (tested at 300-350 nM)) | inhibition of KDR (VEGFR2) [24]: − (inhibition under 50% (tested at 300-350 nM)) | inhibition of KIT [25]: − (inhibition under 50% (tested at 300-350 nM)) | inhibition of MAP2K1 (MEK1) [26]: − (inhibition under 50% (tested at 300-350 nM)) | inhibition of MAP4K4 (HGK) [27]: + (inhibition over 50% (tested at 300-350 nM)) | inhibition of MAPK1 (ERK2) [28]: − (inhibition under 50% (tested at 300-350 nM)) | inhibition of MAPK14 (p38 alpha) [29]: − (inhibition under 50% (tested at 300-350 nM)) | inhibition of MAPK8 (JNK1) [30]: − (inhibition under 50% (tested at 300-350 nM)) | inhibition of MAPKAPK2 [31]: − (inhibition under 50% (tested at 300-350 nM)) | inhibition of MARK2 [32]: − (inhibition under 50% (tested at 300-350 nM)) | inhibition of MET (cMet) [33]: − (inhibition under 50% (tested at 300-350 nM)) | inhibition of NEK1 [34]: − (inhibition under 50% (tested at 300-350 nM)) | inhibition of NTRK1 (TRKA) [35]: − (inhibition under 50% (tested at 300-350 nM)) | inhibition of PAK4 [36]: − (inhibition under 50% (tested at 300-350 nM)) | inhibition of PDGFRB (PDGFR beta) [37]: − (inhibition under 50% (tested at 300-350 nM)) | inhibition of PHKG2 [38]: − (inhibition under 50% (tested at 300-350 nM)) | inhibition of PIM1 [39]: − (inhibition under 50% (tested at 300-350 nM)) | inhibition of PLK1 [40]: − (inhibition under 50% (tested at 300-350 nM)) | inhibition of PRKACA (PKA) [41]: − (inhibition under 50% (tested at 300-350 nM)) | inhibition of PRKCB1 (PKC beta I) [42]: − (inhibition under 50% (tested at 300-350 nM)) | inhibition of ROCK1 [43]: − (inhibition under 50% (tested at 300-350 nM)) | inhibition of RPS6KA3 (RSK2) [44]: − (inhibition under 50% (tested at 300-350 nM)) | inhibition of RPS6KB1 (p70S6K) [45]: − (inhibition under 50% (tested at 300-350 nM)) | inhibition of SRC [46]: + (inhibition over 50% (tested at 300-350 nM)) | inhibition of SYK [47]: + (inhibition over 50% (tested at 300-350 nM)) | inhibition of TEK (Tie2) [48]: − (inhibition under 50% (tested at 300-350 nM))
